Test results taken from patent US10106501B2, “Nuclear receptor modulators” (AbbVie Inc., priority 2015, dated 2018).

target: T1, chimeric human RORγ-Gal4 receptor (Homo sapiens, UniProt P51449); test: transient transactivation assay (RORγ-Gal4 luciferase reporter); format: cell-based; settings: Cos-7 cells transfected with RORγ-Gal4 and 5Gal4 pGL3 TK Luc reporter; overnight incubation; T0901317 at 10^-5 M as reference; read-out: IC50
T1 sequence (P51449 269-508 limits assumed): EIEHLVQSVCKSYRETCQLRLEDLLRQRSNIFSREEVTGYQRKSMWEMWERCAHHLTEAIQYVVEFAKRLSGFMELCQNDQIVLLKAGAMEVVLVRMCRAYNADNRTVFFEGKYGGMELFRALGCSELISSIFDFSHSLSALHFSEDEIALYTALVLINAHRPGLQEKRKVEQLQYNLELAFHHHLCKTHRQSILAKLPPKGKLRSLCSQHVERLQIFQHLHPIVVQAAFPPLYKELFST

Row | IC50 [nM] | SMILES
1 | 100 to 500 | Cc1cc(C(F)(F)F)cc2c1nc(Cc1c(Cl)ccc(CN3CCC(C(C)O)CC3)c1Cl)n2C (centres unmarked) [BW-13]
2 | 100 to 500 | Cc1cc(C(F)(F)F)cc2c1nc(Cc1c(Cl)ccc(CN3CCN(CC(F)(F)F)CC3)c1Cl)n2C [BW-15]
3 | 500 to 1000 | CCN(CCO)Cc1ccc(Cl)c(Cc2nc3c(C)cc(C(F)(F)F)cc3n2C)c1Cl [BW-18]
4 | 500 to 1000 | CCn1c(Cc2c(Cl)ccc(C(=O)N3CCOCC3)c2Cl)nc2c(C)cc(C#N)cc21 [CG, 2-(2,6-dichloro-3-(morpholine-4-carbonyl)benzyl)-1-ethyl-4-methyl-1H-benzo[d]imidazole-6-carbonitrile]
5 | < 100 | Cc1cc(C#N)nc2c1cc(Cc1c(Cl)ccc(C(=O)N3CCC(O)CC3)c1Cl)n2C [CL-1]
6 | < 100 | Cc1cc(C#N)nc2c1cc(Cc1c(Cl)ccc(C(=O)N3CCC(C4COC4)CC3)c1Cl)n2C [CL-2]
7 | < 100 | Cc1cc(C(F)(F)F)cn2c(C)c(Cc3c(Cl)ccc(C(=O)N4CCC(C(C)(C)O)CC4)c3Cl)nc12 [CT-3]
8 | > 10000 | Cc1cc(C(F)(F)F)cn2c(C)c(Cc3c(Cl)ccc(C(=O)N4CCC(O)C4)c3Cl)nc12 (centres unmarked) [CT-4]
9 | < 100 | COC1CCN(C(=O)c2ccc(Cl)c(Cc3nc4c(C)cc(C(F)(F)F)cn4c3C)c2Cl)CC1 [CT-6]
10 | 100 to 500 | Cc1cc(C(F)(F)F)cn2c(C)c(Cc3c(Cl)ccc(C(=O)N4CCC(C(C)O)CC4)c3Cl)nc12 (centres unmarked) [CT-11]
11 | 100 to 500 | Cc1cc(C#N)cn2c(C)c(Cc3c(Cl)ccc(C(=O)N4CCC(C5COC5)CC4)c3Cl)nc12 [CV-5]
12 | < 100 | Cc1cc(C(F)(F)F)nn2c(C)c(Cc3c(Cl)ccc(C(=O)N4CCOCC4)c3Cl)nc12 [CZ, (2,4-dichloro-3-((3,8-dimethyl-6-(trifluoromethyl)imidazo[1,2-b]pyridazin-2-yl)methyl)phenyl)(morpholino)methanone]
13 | 100 to 500 | Cc1cc(C(F)(F)F)nn2c(C)c(C(=O)c3c(Cl)ccc(C(=O)N4CCC(CC(=O)O)CC4)c3Cl)nc12 [CZ-1A, 2-(1-(2,4-dichloro-3-(3,8-dimethyl-6-(trifluoromethyl)imidazo[1,2-b]pyridazine-2-carbonyl)benzoyl)piperidin-4-yl)acetic acid]
14 | 100 to 500 | Cc1cc(C(F)(F)F)nn2c(C)c(Cc3c(Cl)ccc(C(=O)N4CCN(C5COC5)CC4)c3Cl)nc12 [CZ-1]
15 | < 100 | Cc1cc(C(F)(F)F)cc2c1cc(Cc1c(Cl)ccc(C(=O)N3CCOCC3)c1Cl)n2C [D, (2,4-dichloro-3-((1,4-dimethyl-6-(trifluoromethyl)-1H-indol-2-yl)methyl)phenyl)(morpholino)methanone]
16 | 1000 to 10000 | Cc1cc(C#N)nn2c(C)c(Cc3c(Cl)ccc(C(=O)N4CCOCC4)c3Cl)nc12 [DA, 2-(2,6-dichloro-3-(morpholine-4-carbonyl)benzyl)-3,8-dimethylimidazo[1,2-b]pyridazine-6-carbonitrile]
17 | 1000 to 10000 | Cc1cc(C(F)(F)F)nc2c1nc(Cc1c(Cl)ccc(C(=O)N3CCOCC3)c1Cl)n2C [DC, (2,4-dichloro-3-((3,7-dimethyl-5-(trifluoromethyl)-3H-imidazo[4,5-b]pyridin-2-yl)methyl)phenyl)(morpholino)methanone]
18 | < 100 | Cc1nn(Cc2c(Cl)ccc(C(=O)N3CCC(C4COC4)CC3)c2Cl)c2c(C)cc(C(F)(F)F)cc12 [DD-1, (2,4-dichloro-3-((3,7-dimethyl-5-(trifluoromethyl)-1H-indazol-1-yl)methyl)phenyl)(4-(oxetan-3-yl)piperidin-1-yl)methanone]
19 | < 100 | Cc1cn(Cc2c(Cl)ccc(C(=O)N3CC[C@H](C(=O)O)[C@H](C)C3)c2Cl)c2c(C)cc(C(F)(F)F)cc12 [DH1-1]
20 | < 100 | Cc1cn(Cc2c(Cl)ccc(C(=O)N3CCC(CC(=O)O)CC3)c2Cl)c2c(C)cc(C(F)(F)F)cc12 [DI, 2-(1-(2,4-dichloro-3-((3,7-dimethyl-5-(trifluoromethyl)-1H-indol-1-yl)methyl)benzoyl)piperidin-4-yl)acetic acid]
21 | < 100 | Cc1cn(C(=O)c2c(Cl)ccc(C(=O)N3CCC(C(=O)O)CC3)c2Cl)c2c(C)cc(C(F)(F)F)cc12 [DJ1-1]
22 | < 100 | Cc1cn(C(=O)c2c(Cl)ccc(C(=O)N3CC[C@H](C(=O)O)[C@H](C)C3)c2Cl)c2c(C)cc(C(F)(F)F)cc12 [DJ1-2]

The next lines start with the compound.

Row | SMILES | IC50 [nM]
23 | Cc1cc(C(F)(F)F)cc2c1nc(Cc1c(Cl)ccc(CN3CCC(CO)CC3)c1Cl)n2C [BW-14] | 100 to 500
24 | Cc1cc(C(F)(F)F)cc2c1nc(Cc1c(Cl)ccc(CN3CCC(N(C)C)CC3)c1Cl)n2C [BW-16] | 1000 to 10000
25 | Cc1cc(C(F)(F)F)cc2c1nc(Cc1c(Cl)ccc(CN3CCCC(C)(O)C3)c1Cl)n2C (centres unmarked) [BW-17] | 100 to 500
26 | Cn1c(Cc2c(Cl)ccc(C(=O)N3CCOCC3)c2Cl)nc2c(C(F)(F)F)cc(Br)cc21 [CE, (3-((6-bromo-1-methyl-4-(trifluoromethyl)-1H-benzo[d]imidazol-2-yl)methyl)-2,4-dichlorophenyl)(morpholino)methanone] | 100 to 500
27 | Cn1c(Cc2c(Cl)ccc(C(=O)N3CCOCC3)c2Cl)nc2c(C(F)(F)F)cc(C#N)cc21 [CF, 2-(2,6-dichloro-3-(morpholine-4-carbonyl)benzyl)-1-methyl-4-(trifluoromethyl)-1H-benzo[d]imidazole-6-carbonitrile] | 500 to 1000
28 | Cc1cc(C#N)cc2c1nc(Cc1c(Cl)ccc(C(=O)N3CCOCC3)c1Cl)n2C(C)C [CH, 2-(2,6-dichloro-3-(morpholine-4-carbonyl)benzyl)-1-isopropyl-4-methyl-1H-benzo[d]imidazole-6-carbonitrile] | < 100
29 | Cc1cc(C#N)nc2c1nc(Cc1c(Cl)ccc(C(=O)N3CCOCC3)c1Cl)n2C [CI, 2-(2,6-dichloro-3-(morpholine-4-carbonyl)benzyl)-3,7-dimethyl-3H-imidazo[4,5-b]pyridine-5-carbonitrile] | 1000 to 10000
30 | Cn1c(Cc2c(Cl)ccc(C(=O)N3CCOCC3)c2Cl)cc2c(Cl)cc(C#N)cc21 [CJ, 4-chloro-2-(2,6-dichloro-3-(morpholine-4-carbonyl)benzyl)-1-methyl-1H-indole-6-carbonitrile] | 1000 to 10000
31 | Cn1c(Cc2c(Cl)ccc(C(=O)N3CCOCC3)c2Cl)cc2cccnc21 [CK, (2,4-dichloro-3-((1-methyl-1H-pyrrolo[2,3-b]pyridin-2-yl)methyl)phenyl)(morpholino)methanone] | 1000 to 10000
32 | Cc1cc(Cl)nc2c1cc(Cc1c(Cl)ccc(C(=O)N3CCOCC3)c1Cl)n2C [CM1, (2,4-dichloro-3-((6-chloro-1,4-dimethyl-1H-pyrrolo[2,3-b]pyridin-2-yl)methyl)phenyl)(morpholino)methanone] | < 100
33 | Cc1cc(C(F)(F)F)nc2c1cc(Cc1c(Cl)ccc(C(=O)N3CCOCC3)c1Cl)n2C [CM, (2,4-dichloro-3-((1,4-dimethyl-6-(trifluoromethyl)-1H-pyrrolo[2,3-b]pyridin-2-yl)methyl)phenyl)(morpholino)methanone] | < 100
34 | Cn1c(C(=O)c2c(Cl)ccc(C(=O)N3CCOCC3)c2Cl)cc2ncc(C(F)(F)F)cc21 [CP, (2,4-dichloro-3-(1-methyl-6-(trifluoromethyl)-1H-pyrrolo[3,2-b]pyridine-2-carbonyl)phenyl)(morpholino)methanone] | 1000 to 10000
35 | Cc1cc(C(F)(F)F)cn2c(C)c(Cc3c(Cl)ccc(C(=O)N4CCC(CCO)CC4)c3Cl)nc12 [CT-2] | 100 to 500
36 | Cc1cc(C(F)(F)F)cn2c(C)c(Cc3c(Cl)ccc(C(=O)N4CCC(N(C)C)CC4)c3Cl)nc12 [CT-5] | 500 to 1000
37 | COCCC1CCN(C(=O)c2ccc(Cl)c(Cc3nc4c(C)cc(C(F)(F)F)cn4c3C)c2Cl)CC1 [CT-7] | < 100
38 | Cc1cc(C(F)(F)F)cn2c(C)c(Cc3c(Cl)ccc(C(=O)N4CCC(C5COC5)CC4)c3Cl)nc12 [CT-8] | < 100
39 | Cc1cc(C(F)(F)F)cn2c(C)c(Cc3c(Cl)ccc(C(=O)N4CCN(C5COC5)CC4)c3Cl)nc12 [CT-9] | 100 to 500
40 | Cc1cc(C(F)(F)F)nn2c(C)c(Cc3c(Cl)ccc(C(=O)N4CCC(C5COC5)CC4)c3Cl)nc12 [CZ-2] | < 100
41 | Cc1cc(C(F)(F)F)nn2c(C)c(Cc3c(Cl)ccc(C(=O)N4CCN(S(C)(=O)=O)[C@H](C)C4)c3Cl)nc12 [CZ-3] | 100 to 500
42 | Cc1cc2nc(Cc3c(Cl)ccc(C(=O)N4CCOCC4)c3Cl)c(C)n2nc1C#N [DB, 2-(2,6-dichloro-3-(morpholine-4-carbonyl)benzyl)-3,7-dimethylimidazo[1,2-b]pyridazine-6-carbonitrile] | 1000 to 10000
43 | Cc1nn(Cc2c(Cl)ccc(C(=O)N3CCC(CC(=O)O)CC3)c2Cl)c2c(C)cc(C(F)(F)F)cc12 [DE, 2-(1-(2,4-dichloro-3-((3,7-dimethyl-5-(trifluoromethyl)-1H-indazol-1-yl)methyl)benzoyl)piperidin-4-yl)acetic acid] | < 100
44 | Cc1cc(C(F)(F)F)cc2c(C)n(Cc3c(Cl)ccc(C(=O)N4CCC(CC(=O)O)CC4)c3Cl)nc12 [DG, 2-(1-(2,4-dichloro-3-((3,7-dimethyl-5-(trifluoromethyl)-2H-indazol-2-yl)methyl)benzoyl)piperidin-4-yl)acetic acid] | < 100
45 | Cc1cn(Cc2c(Cl)ccc(C(=O)N3CC[C@@H](C(=O)O)[C@@H](C)C3)c2Cl)c2c(C)cc(C(F)(F)F)cc12 [DH1-2] | < 100
46 | Cc1cn(Cc2c(Cl)ccc(C(=O)N3CCC(C(=O)O)CC3)c2Cl)c2c(C)cc(C(F)(F)F)cc12 [DH, 1-(2,4-dichloro-3-((3,7-dimethyl-5-(trifluoromethyl)-1H-indol-1-yl)methyl)benzoyl)piperidine-4-carboxylic acid] | < 100
47 | Cc1cn(C(=O)c2c(Cl)ccc(C(=O)N3CC[C@@H](C(=O)O)[C@@H](C)C3)c2Cl)c2c(C)cc(C(F)(F)F)cc12 [DJ1-3] | < 100
